Reference: ChEMBL document CHEMBL4602620, “N,O-Dialkyl deoxynojirimycin derivatives as CERT START domain ligands” (Bioorg Med Chem Lett, 2020)

Legend:
[1] = biological target: T1, Ceramide transfer protein (Homo sapiens) (UniProt Q9Y5P4); test: Displacement of fluorescent tagged ceramide from immobilized His-tagged CERT START domain (unknown origin) assessed as reduction in residual fluorescence activity by FLINT assay relative to control; design: concentration or dose not given beside the values; settings: concentration not given here
T1 sequence (whole entry): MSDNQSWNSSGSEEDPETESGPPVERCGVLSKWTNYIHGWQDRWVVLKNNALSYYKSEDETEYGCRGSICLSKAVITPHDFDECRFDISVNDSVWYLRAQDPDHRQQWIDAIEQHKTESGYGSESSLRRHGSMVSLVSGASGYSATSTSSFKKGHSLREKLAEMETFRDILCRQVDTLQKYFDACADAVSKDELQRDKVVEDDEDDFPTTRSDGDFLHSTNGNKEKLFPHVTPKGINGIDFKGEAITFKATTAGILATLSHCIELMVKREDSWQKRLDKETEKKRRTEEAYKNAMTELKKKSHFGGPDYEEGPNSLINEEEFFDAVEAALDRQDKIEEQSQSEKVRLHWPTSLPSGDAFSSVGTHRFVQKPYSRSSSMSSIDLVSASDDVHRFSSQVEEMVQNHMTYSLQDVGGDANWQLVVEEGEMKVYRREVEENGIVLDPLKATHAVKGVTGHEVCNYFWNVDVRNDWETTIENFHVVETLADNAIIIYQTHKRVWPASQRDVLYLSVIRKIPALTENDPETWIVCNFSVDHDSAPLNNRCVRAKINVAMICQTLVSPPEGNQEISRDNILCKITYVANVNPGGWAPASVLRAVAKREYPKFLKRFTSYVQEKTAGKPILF

[2] = system: Saccharomyces cerevisiae; test: Inhibition of Saccharomyces cerevisiae alpha-glucosidase at 0.2 mM relative to control
[3] = system: Prunus dulcis; test: Inhibition of almond beta-glucosidase at 0.2 mM relative to control
[4] = system: Aspergillus niger; test: Inhibition of Aspergillus niger amyloglucosidase at 0.2 mM relative to control

SMILES	inhibition [1] [%]	inhibition [2] [%]	inhibition [3] [%]	inhibition [4] [%]
CCCCCCCCCCCCO[C@H]1CN(CCCCCCCCCCCC)C[C@@H](O)[C@@H]1O	25	–	–	–
CCCCCCCCCCCCN1C[C@H](O)[C@@H](O)[C@H](O)[C@H]1CO	25	13	39	88
CCCCCCCCCCCCO[C@H]1CN(CCCCCCCCCCCC)[C@H](CO)[C@@H](O)[C@@H]1O	40	5.1	0.65	6
CCCCCCCCCCCCO[C@H]1[C@H](O)[C@@H](O)CN(CCCCCCCCCCCC)[C@@H]1CO	20	7.3	1.7	11
CCCCCCCCCCCCC/C=C/[C@@H](O)[C@H](CO)NC(=O)CCCCCCCCCCCCCCC	25	–	–	–
CCCCCCCCCCCC(=O)N[C@@H](CO)C[C@H](O)c1ccccc1	25	–	–	–
